Data from patent US20250281406A1, “COMPOUNDS, COMPOSITIONS AND METHODS FOR DELIVERY OF BIOLOGICALLY ACTIVE AGENTS” (ROYAL MELBOURNE INSTITUTE OF TECHNOLOGY, priority 2022, published 2025).

Columns and labels:
[1] = Particle size and polydispersity index of lipid nanoparticles by dynamic light scattering; assay type: physicochemical; settings: mean ± SD n=3
Description: The average hydrodynamic diameter and polydispersity index (PDI) of lipid nanoparticles were measured by dynamic light scattering (DLS) using a Malvern Zetasizer Nano ZS (Malvern Instruments, UK). All measurements were performed at 25° C. (n=3) by loading the lipid formulations (10 μL) into clear 96-well half-area polystyrene plates and diluting with 190 μL milli-Q water (Zhai et al. 2015).

[2] = Mesophase (phase behaviour) of lipid nanoparticles by synchrotron SAXS; assay type: physicochemical
Description: Nanoparticle preparations (50 μL) were loaded into a transparent 96-well half-area polystyrene plate (Greiner Bio-One, Interpath Inc., VIC, Australia), and 50 μL of a suitable buffer solution (Citrate buffer) of specified pH was added to the plate. Phase behaviour of the nanoparticles was characterized at the SAXS/WAXS beamline of the Australian Synchrotron. The instrument used an X-ray wavelength of λ=1.128 Å (11.0 keV) with atypical flux of approximately […]. The sample to detector distance was chosen as 1.6 m which provided a q-range of 0.01-0.5 Å^−1 (scattering vector q=4π sin (θ/2)/λ, whereby θ is the scattering angle and λ is the wavelength). Sample scattering patterns were obtained at 25° C. and 37° C. following the procedure reported in the literature. The plate was placed in a holder perpendicular to the X-ray beam. The sample holder was moved by motors that were controlled by in-house ScatterBrain software for automatic SAXS screening. The sample temperature was controlled by a circulating water bath and kept at 25° C. or 37° C. Two-dimensional X-ray diffraction images were recorded on a Decris-Pilatus 1-M detector using ScatterBrain. The scattering images were integrated into one dimensional plots of intensity versus q for phase identification. The mesophase of the nanoparticles were assigned by matching the relative positions of the scattering peaks with known patterns for bicontinuous cubic, hexagonal, lamellar, and micellar cubic phase. The lattice parameter of the nanoparticles were calculated using the IDL-based software AXcess following the described method (Tran et al. 2018; Tran et al. 2016).
As detailed in Example 2 above, lipid nanoparticles described herein were prepared by doping the synthesised amino lipids into MO at 8 different compositions (RMO=0.05, 0.1, 0.15, 0.2, 0.25, 0.3, 0.4, 0.5) and dispersed with Pluronic F-127. Mesophase structure of the drug-free formulations was determined by SAXS over ten different pH values (a pH range of 2.5 to 10). FIG. 3 represents the SAXS partial phase diagrams of these nanoparticles at 25° C. The shape of an amphiphile can be characterised by the critical packing parameter (CPP). CPP=V/al, in which V is the effective volume of the amphiphile's hydrophobic tail, a is the effective cross-sectional area of the headgroup, and l is the effective length of the hydrocarbon chain. Lamellar phases (Lα) are typically observed with a zero interfacial curvature. For CPP values greater than 1, inverse phases, such as Q2 and H2 phases, are formed with increasing negative interfacial curvatures. The Q2 phase consists of lipid bilayers arranged in periodic 3D structures by twisting the bilayers into the shape of infinite periodic minimal surfaces. The H2 is a closed, extended micellar columnar structure, where there is no direct contact between the water inside and outside the H2 phase.

[3] = Drug loading and encapsulation efficiency of SN-38 nanoparticles by HPLC; assay type: physicochemical
Description: The amount of drug loading (DL) and encapsulation efficiency (EE) were determined for each of the four formulations of Example 5 using an HPLC method.
The nanoparticles containing the drug was centrifuged at 1000×g for 25 min at 25° C. to remove any un-encapsulated drug agglomerates. The supernatant was collected and vortexed for 10 min at 2500 rpm for uniform distribution.
For the SN-38 drug content assay, a UV variable detector at a wavelength of 265 nm and an Agilent Zorbax SB-C18 column (4.6 mm×250 mm, five μm) were utilised. The mobile phase consisted of a 50:50 (v/v) mixture of 25 mM NaH2PO4 (pH=3.1) buffer and acetonitrile. The mobile phase pH was maintained at 3.8 to ensure the analyte, SN-38, was in the closed lactone ring form during the assay. The sample for HPLC was prepared by diluting the nanoparticles 100 times with HPLC solvents (10 μL of the formulation with 990 μL 50/50 mixture of buffer and acetonitrile). During the assay, an aliquot of 20 μL of the sample was injected in duplicate into the HPLC system at a flow rate of 1 ml/min. The SN-38 content in the formulation was quantitatively determined using a standard curve prepared as outlined in previously published journal articles (Zhang et al. 2004; Escoriaza et al. 2000).
The following equation was used calculate the encapsulation efficiency (EE %) […]

[4] = In vitro release of SN-38 by dynamic dialysis; assay type: physicochemical; settings: pure-drug suspension, no lipid nanocarriers, within 60-90 min
Description: In vitro release of SN-38 from the nanoparticles was evaluated using a dynamic dialysis method (Zambito, Y. International Journal of Pharmaceutics 2012, 434 (1), 28-34). The drug release rate was determined by placing the dispersion in a dialysis tube (Pur-A-Lyzer™ Maxi Dialysis tube molecular weight cut off 3500) and exhaustively dialysing.
After removing the free drug, the highest SN-38 loaded nanoparticles (1 mL formulation) were placed inside the dialysis tube. The dialysis tube was then immersed in a 1000 mL buffer maintained at 37±1.0° C. and stirred at 400 rpm. The analysis of the separation of free drug from drug-loaded formulations was carried out over a period of 420 min. Release experiments were performed in triplicate on three independently prepared SN-38 loaded formulations. For physiological pH, experiments were carried out by dialysing the formulations against 1000 mL of phosphate buffer (pH 7.0). Lower pH experiments were carried out by dialysing the formulations against 1000 mL of phosphate buffer adjusted to the required pH. The SN-38 that remained in the dialysis tube was quantitatively measured by the HPLC method. At predetermined time intervals (60 min, 120 min, 240 min and 420 min), 10 μL of the sample was withdrawn from the dialysis tube and diluted with 990 μL of the HPLC solvent. […]

[5] = cited from earlier work
[6] = MO nanoparticles with amino lipid at RMO 0.05, Pluronic F-127, 25° C.
[7] = MO nanoparticles with amino lipid at RMO 0.1, Pluronic F-127, 25° C.
[8] = MO nanoparticles with amino lipid at RMO 0.15, Pluronic F-127, 25° C.
[9] = MO nanoparticles with amino lipid at RMO 0.2, Pluronic F-127, 25° C.
[10] = MO nanoparticles with amino lipid at RMO 0.25, Pluronic F-127, 25° C.
[11] = MO nanoparticles with amino lipid at RMO 0.3, Pluronic F-127, 25° C.
[12] = MO nanoparticles with amino lipid at RMO 0.4, Pluronic F-127, 25° C.
[13] = MO nanoparticles with amino lipid at RMO 0.5, Pluronic F-127, 25° C.

PDI of the formulations [1, 6] | Particle Size in nm [1, 6] [nm] | PDI of the formulations [1, 7] | Particle Size in nm [1, 7] [nm] | PDI of the formulations [1, 8] | Particle Size in nm [1, 8] [nm] | PDI of the formulations [1, 9] | Particle Size in nm [1, 9] [nm] | PDI of the formulations [1, 10] | Particle Size in nm [1, 10] [nm] | PDI of the formulations [1, 11] | Particle Size in nm [1, 11] [nm] | PDI of the formulations [1, 12] | Particle Size in nm [1, 12] [nm] | PDI of the formulations [1, 13] | Particle Size in nm [1, 13] [nm] | Compound | further results
0.25 ± 0.03 | 180 ± 3 | 0.20 ± 0.04 | 176 ± 4 | 0.23 ± 0.04 | 168 ± 4 | 0.22 ± 0.05 | 185 ± 6 | 0.19 ± 0.03 | 180 ± 2 | 0.23 ± 0.03 | 194 ± 5 | 0.15 ± 0.05 | 200 ± 5 | 0.18 ± 0.05 | 209 ± 5 | CCCCCCCC/C=C\CCCCCCCC(=O)NCCN1CCCCC1 [Lipid-13, N-(2-(piperidin-1-yl)ethyl)oleamide] | pH difference within which the change from H2 to Q2 is observed ([2]; RMO=0.2-0.3): ≤ 0.5 pH unit; pH of H2→Q2 transition ([2]; RMO=0.2-0.3): 7.0 pH
 |  |  |  |  |  |  |  |  |  |  |  |  |  |  |  | CCc1c2c(nc3ccc(O)cc13)-c1cc3c(c(=O)n1C2)COC(=O)[C@]3(O)CC [SN-38] | Loading relative to solubility of SN-38 in water ([3]; 844 μg/ml loading): ~100 times; Loading of SN-38 ([3]; highest loading achieved in MO/Lipid-10 nanoparticles): 844 µg/mL; SN-38 released through dialysis membrane [4]: More than 90%; Solubility in water [5]: 7 to 11 µg/mL
0.23 ± 0.04 | 284 ± 2 | 0.18 ± 0.03 | 255 ± 4 | 0.20 ± 0.03 | 300 ± 7 | 0.23 ± 0.02 | 267 ± 4 | 0.28 ± 0.02 | 313 ± 4 | 0.20 ± 0.02 | 290 ± 4 | 0.10 ± 0.02 | 272 ± 5 | 0.21 ± 0.03 | 300 ± 4 | CCCCCCCC/C=C\CCCCCCCC(=O)NCc1ccccn1 [Lipid-11] | Phase observed ([2]; RMO=0.4, neutral pH, MO nanoparticles): L2 phase; pH of transition from L2 to Q2 ([2]; RMO=0.4-0.5): 3.0 pH
0.16 ± 0.03 | 217 ± 6 | 0.21 ± 0.02 | 224 ± 3 | 0.2 ± 0.05 | 259 ± 8 | 0.19 ± 0.03 | 271 ± 4 | 0.39 ± 0.03 | 250 ± 3 | 0.22 ± 0.02 | 246 ± 4 | 0.24 ± 0.03 | 244 ± 6 | 0.25 ± 0.04 | 265 ± 4 | CCCCCCCC/C=C\CCCCCCCC(=O)NCc1ccncc1 [Lipid-10, N-(pyridine-4-ylmethyl)oleamide] | Shift of H2 to Q2 transition at 37° C. compared to 25° C. (higher) ([2]; RMO 0.4, pH 4.0 to 7.5): 0.5 pH unit; pH at which Q2 is reached in the transition from H2 at pH 7.5 ([2]; RMO=0.4-0.5, 25° C.): 5.5 pH; pH resulting in liposome formation ([2]; RMO=0.4-0.5, further decrease in pH): 4.0 pH; RMO at which the transition from Q2 to H2 occurred ([2]; pH 7, MO nanoparticles): 0.4
0.23 ± 0.03 | 214 ± 4 | 0.20 ± 0.05 | 218 ± 3 | 0.20 ± 0.05 | 239 ± 3 | 0.30 ± 0.03 | 250 ± 2 | 0.25 ± 0.03 | 191 ± 8 | 0.25 ± 0.05 | 206 ± 11 | 0.40 ± 0.04 | 205 ± 6 | 0.38 ± 0.03 | 137 ± 6 | CCCCCCCC/C=C\CCCCCCCC(=O)NCCN1CCOCC1 [Lipid-12] | 
